The text below walks through data of US20090196878A1, “Intestinal epithelial glucose sensor” (priority 2004, published 2009).

Data set [1] deals with SGLT1 expression. Description: Dietary trial, SGLT1 mRNA by real-time PCR in wild-type mice. Type of data set: in vivo, mouse. Conditions: proximal and mid intestinal regions, low carbohydrate diet plus sucralose 2 mM, 2 weeks, qPCR. The protocol: (§1) Male CD-1 and C57BL/6 mice, six weeks old, from Charles River Laboratories were used. The α-gustducin knock out mouse was described by Wong et al. (1996); the T1R3 knock out mouse was described by Damak et al. 2003).
(§2) High and low carbohydrate diets were resp. TestDiet® 5810 and TestDiet® 5787-9. For the sucralose test, the low carbohydrate diet was supplemented with sucralose (1,6-dichloro-1,6-dideoxy-beta-D-fructofuranosyl-4-chloro-4-deoxy-alpha-galactopyranoside) at 2 mM.
(§3) Animals were killed by concussion followed by cervical dislocation. The entire small intestine was removed and flushed with ice-cold 0.9% NaCl, opened longitudinally, rinsed in saline and mucous removed by blotting. The small intestine was then divided into proximal, mid and distal sections and the mucosa removed by scraping. Mucosal scrapings were frozen immediately in liquid nitrogen and stored at −80° C. until use. […]
(§4) Second, groups of wildtype and T1R3 and α-gustducin KO mice were placed on each of three iso-caloric diets a) low carbohydrate, b) high carbohydrate, and c) low carbohydrate+artificial sweetener (sucralose), for two weeks. After this time the mice were killed and the small intestines were removed, divided into proximal, mid and distal regions, and SGLT1 expression, at protein and mRNA levels, were measured in each.
(In qPCR the cycle at which signal appears reflects the starting amount.)

The test system of data set [2] is SGLT1 expression. Description: Dietary trial, SGLT1 expression in α-gustducin knock-out mice. Type of data set: in vivo, mouse. Conditions: α-gustducin KO mice, low-carbohydrate + sucralose diet, 2 weeks. The method, then: as §1, §2, §3, §4
For data set [3], the system named is SGLT1 expression. Put plainly: Dietary trial, SGLT1 protein by western blot of luminal membrane vesicles in wild-type mice. Type of data set: in vivo, mouse. Conditions: low carbohydrate + sucralose diet, 2 weeks. The protocol: as §1, §2, §3, §4
In general terms: In western blotting, separated proteins are transferred to a membrane and probed.

For data set [4], the system named is SGLT1 expression. Description: Dietary trial, SGLT1 expression in T1R3 knock-out mice. Type of data set: in vivo, mouse. Conditions: T1R3 KO mice, low-carbohydrate + sucralose diet, 2 weeks. The method, then:
as §1, §2, §3, §4

For data set [5] the following is noted: reported, Roberts et al. 2000; cited from earlier work.

The structures appear in SMILES notation.

As to `OC[C@H]1O[C@H](O[C@]2(CCl)O[C@H](CCl)[C@@H](O)[C@@H]2O)[C@H](O)[C@@H](O)[C@H]1Cl` [sucralose, 1,6-dichloro-1,6-dideoxy-beta-D-fructofuranosyl-4-chloro-4-deoxy-alpha-galactopyranoside], the “increase in SGLT1 mRNA” value with SGLT1 expression [1] was 30-70%. Moreover, the “SGLT1 mRNA” value in the data set on SGLT1 expression [2] and in the data set on SGLT1 expression [4] was “no increase” throughout. For the same compound, the SGLT1 protein entry in the data set with SGLT1 expression [2] and in the data set on SGLT1 expression [4] was “no increase” each time. Further, in the data set on SGLT1 expression [3], the SGLT1 protein expression result is “increased”. For the same compound, the “hydrolysis, transport and metabolism within the mammalian small intestine” value in data set [5] was “non-hydrolysed, non-transported and non-metabolised”.
